# Laboratory results from patent US10167262B2, “Herbicidal substituted 3-arylpyrazoles” (FMC CORPORATION, priority 2014, dated 2019).
# Experiments:
# Assay type in all cases: in vivo
# [1] = test system: barnyardgrass (Echinochloa crus-galli); assay: Test A pre-/postemergence greenhouse herbicide test, visual injury rating 0-100
# In short: (§1)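 Visual injury versus untreated controls, scored about 10 days after treatment on a 0 to 100 scale (0 = no effect, 100 = complete control). Applications were preemergence directed soil spray plus postemergence spray at one- to two-leaf stage, 2 to 10 cm plants.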
# [2] = test system: corn (Zea mays); assay: as above
# In short: as §1
# [3] = test system: giant foxtail (Setaria faberii); assay: as above
# In short: as §1
# [4] = test system: large (Lg) crabgrass (Digitaria sanguinalis); assay: as above
# In short: as §1
# [5] = test system: morningglory (Ipomoea spp.); assay: as above
# In short: as §1
# [6] = test system: pigweed (Amaranthus retroflexus); assay: as above
# In short: as §1
# [7] = test system: velvetleaf (Abutilon theophrasti); assay: as above
# In short: as §1
# [8] = test system: wheat (Triticum aestivum); assay: as above
# In short: as §1
# [9] = test system: galium (catchweed bedstraw, Galium aparine); assay: Test C pre-/postemergence greenhouse test, plant response rating 0-100; conditions: Postemergence; for Plant response rating, Galium: 250 g ai/ha, scale 0 to 100
# In short: (§2)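 Plants were scored visually against controls 13–15 days after treatment on a 0–100 scale, 100 meaning complete control. Test chemicals, formulated in surfactant-containing non-phytotoxic solvent, went preemergence onto seeds in loam–sand blend or postemergence onto 1- to 4-leaf plants (2–18 cm) grown in peat-based mix.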
# [10] = test system: morningglory (Ipomoea coccinea); assay: as above; conditions: Postemergence; for Plant response rating, Morningglory: 250 g ai/ha, scale 0 to 100
# In short: as §2
# [11] = test system: chickweed (common chickweed, Stellaria media); assay: Test C postemergence greenhouse test, plant response rating 0-100; conditions: for Plant response rating, Chickweed: 250 g ai/ha, scale 0 to 100
# Excerpt: (§3) At the same time, plants selected from these crop and weed species and also winter barley (Hordeum vulgare), bermudagrass (Cynodon dactylon), downy bromegrass (Bromus tectorum), canarygrass (Phalaris minor), cocklebur (common cocklebur, Xanthium strumarium), woolly cupgrass (Eriochloa villosa), deadnettle (henbit deadnettle, Lamium amplexicaule), green foxtail (Setaria viridis), goosegrass (Eleusine indica), surinam grass (Brachiaria decumbens), windgrass (Apera spica-venti), chickweed (common chickweed, Stellaria media), kochia (Kochia scoparia), and wild oat (Avena fatua), were planted in pots containing Redi-Earth® planting medium (Scotts Company, 14111 Scottslawn Road, Marysville, Ohio 43041) comprising spaghnum peat moss, vermiculite, wetting agent and starter nutrients and treated with postemergence applications of test chemicals formulated in the same manner. Plants ranged in height from 2 to 18 cm (1- to 4-leaf stage) for postemergence treatments. Treated plants and controls were maintained in a greenhouse for 13 to 15 days, after which time all species were compared to controls and visually evaluated. Plant response ratings, summarized in Table C, are based on a scale of 0 to 100 where 0 is no effect and 100 is complete control. A dash (-) response means no test result.
# [12] = test system: kochia (Kochia scoparia); assay: as above; conditions: for Plant response rating, Kochia: 250 g ai/ha, scale 0 to 100
# Excerpt: as §3
# [13] = test system: wild oat (Avena fatua); assay: as above; conditions: for Plant response rating, Oat, Wild: 250 g ai/ha, scale 0 to 100
# Excerpt: as §3
smiles,measurement,setting,value
CCn1cc(C(=NN2CCCC2)c2ccccc2)c(-c2cc(Cl)cc(Cl)c2)n1 [Compound 37],"Plant response rating (0 to 100 scale), Barnyardgrass","[1]; Postemergence, 125 g ai/ha",0
same,"Plant response rating (0 to 100 scale), Barnyardgrass","[1]; Postemergence, 500 g ai/ha",0
same,"Barnyardgrass plant response rating (0 = no effect, 100 = complete control)","[1]; Preemergence, 125 g ai/ha",0
same,"Plant response rating (0 to 100 scale), Barnyardgrass","[1]; Preemergence, 500 g ai/ha",0
same,"Plant response rating (0 to 100 scale), Corn","[2]; Postemergence, 125 g ai/ha",0
same,"Plant response rating (0 to 100 scale), Corn","[2]; Postemergence, 500 g ai/ha",0
same,"Corn plant response rating (0 = no effect, 100 = complete control)","[2]; Preemergence, 125 g ai/ha",0
same,"Plant response rating (0 to 100 scale), Corn","[2]; Preemergence, 500 g ai/ha",0
same,"Plant response rating (0 to 100 scale), Foxtail, Giant","[3]; Postemergence, 125 g ai/ha",0
same,"Plant response rating (0 to 100 scale), Foxtail, Giant","[3]; Postemergence, 500 g ai/ha",0
same,"Foxtail, Giant plant response rating (0 = no effect, 100 = complete control)","[3]; Preemergence, 125 g ai/ha",0
same,"Plant response rating (0 to 100 scale), Foxtail, Giant","[3]; Preemergence, 500 g ai/ha",0
same,"Plant response rating (0 to 100 scale), Crabgrass, Large","[4]; Postemergence, 125 g ai/ha",0
same,"Plant response rating (0 to 100 scale), Crabgrass, Large","[4]; Postemergence, 500 g ai/ha",0
same,"Crabgrass, Large plant response rating (0 = no effect, 100 = complete control)","[4]; Preemergence, 125 g ai/ha",0
same,"Plant response rating (0 to 100 scale), Crabgrass, Large","[4]; Preemergence, 500 g ai/ha",0
same,"Plant response rating (0 to 100 scale), Morningglory","[5]; Postemergence, 125 g ai/ha",0
same,"Plant response rating (0 to 100 scale), Morningglory","[5]; Postemergence, 500 g ai/ha",0
same,"Morningglory plant response rating (0 = no effect, 100 = complete control)","[5]; Preemergence, 125 g ai/ha",0
same,"Plant response rating (0 to 100 scale), Morningglory","[5]; Preemergence, 500 g ai/ha",0
same,"Plant response rating (0 to 100 scale), Pigweed","[6]; Postemergence, 125 g ai/ha",80
same,"Plant response rating (0 to 100 scale), Pigweed","[6]; Postemergence, 500 g ai/ha",100
same,"Pigweed plant response rating (0 = no effect, 100 = complete control)","[6]; Preemergence, 125 g ai/ha",40
same,"Plant response rating (0 to 100 scale), Pigweed","[6]; Preemergence, 500 g ai/ha",90
same,"Plant response rating (0 to 100 scale), Velvetleaf","[7]; Postemergence, 125 g ai/ha",80
same,"Plant response rating (0 to 100 scale), Velvetleaf","[7]; Postemergence, 500 g ai/ha",100
same,"Velvetleaf plant response rating (0 = no effect, 100 = complete control)","[7]; Preemergence, 125 g ai/ha",0
same,"Plant response rating (0 to 100 scale), Velvetleaf","[7]; Preemergence, 500 g ai/ha",40
same,"Plant response rating (0 to 100 scale), Wheat","[8]; Postemergence, 125 g ai/ha",0
same,"Plant response rating (0 to 100 scale), Wheat","[8]; Postemergence, 500 g ai/ha",0
same,"Wheat plant response rating (0 = no effect, 100 = complete control)","[8]; Preemergence, 125 g ai/ha",0
same,"Plant response rating (0 to 100 scale), Wheat","[8]; Preemergence, 500 g ai/ha",0
same,"Plant response rating (0 to 100), Galium",[9]; 31 g ai/ha,0
same,"Plant response rating (0 to 100), Galium",[9]; 62 g ai/ha,0
same,"Plant response rating (0 to 100), Galium",[9]; 125 g ai/ha,0
same,"Plant response rating, Galium",[9],0
same,"Plant response rating (0 to 100), Morningglory",[10]; 62 g ai/ha,0
same,"Plant response rating (0 to 100), Morningglory",[10]; 125 g ai/ha,0
same,"Plant response rating, Morningglory",[10],0
same,"Plant response rating (0 to 100), Chickweed",[11]; 31 g ai/ha,70
same,"Plant response rating (0 to 100), Chickweed",[11]; 125 g ai/ha,70
same,"Plant response rating, Chickweed",[11],75
same,"Plant response rating (0 to 100), Kochia",[12]; 62 g ai/ha,15
same,"Plant response rating (0 to 100), Kochia",[12]; 125 g ai/ha,15
same,"Plant response rating, Kochia",[12],35
same,"Plant response rating (0 to 100), Oat, Wild",[13]; 62 g ai/ha,0
same,"Plant response rating (0 to 100), Oat, Wild",[13]; 125 g ai/ha,0
same,"Plant response rating, Oat, Wild",[13],0
CCn1cc(C(=O)c2ccccc2)c(-c2cc(Br)cc(Br)c2)n1 [Compound 38],"Plant response rating (0 to 100 scale), Barnyardgrass","[1]; Postemergence, 1000 g ai/ha",0
same,"Plant response rating (0 to 100 scale), Barnyardgrass","[1]; Preemergence, 1000 g ai/ha",0
same,"Plant response rating (0 to 100 scale), Corn","[2]; Postemergence, 1000 g ai/ha",0
same,"Plant response rating (0 to 100 scale), Corn","[2]; Preemergence, 1000 g ai/ha",0
same,"Plant response rating (0 to 100 scale), Foxtail, Giant","[3]; Postemergence, 1000 g ai/ha",0
same,"Plant response rating (0 to 100 scale), Foxtail, Giant","[3]; Preemergence, 1000 g ai/ha",0
same,"Plant response rating (0 to 100 scale), Crabgrass, Large","[4]; Postemergence, 1000 g ai/ha",0
same,"Plant response rating (0 to 100 scale), Crabgrass, Large","[4]; Preemergence, 1000 g ai/ha",0
same,"Plant response rating (0 to 100 scale), Morningglory","[5]; Preemergence, 1000 g ai/ha",0
same,"Plant response rating (0 to 100 scale), Pigweed","[6]; Postemergence, 1000 g ai/ha",100
same,"Plant response rating (0 to 100 scale), Pigweed","[6]; Preemergence, 1000 g ai/ha",90
same,"Plant response rating (0 to 100 scale), Velvetleaf","[7]; Postemergence, 1000 g ai/ha",90
same,"Plant response rating (0 to 100 scale), Velvetleaf","[7]; Preemergence, 1000 g ai/ha",80
same,"Plant response rating (0 to 100 scale), Wheat","[8]; Postemergence, 1000 g ai/ha",0
same,"Plant response rating (0 to 100 scale), Wheat","[8]; Preemergence, 1000 g ai/ha",0
same,"Plant response rating (0 to 100), Galium",[9]; 31 g ai/ha,0
same,"Plant response rating (0 to 100), Galium",[9]; 62 g ai/ha,0
same,"Plant response rating (0 to 100), Galium",[9]; 125 g ai/ha,0
same,"Plant response rating, Galium",[9],5
same,"Plant response rating (0 to 100), Morningglory",[10]; 62 g ai/ha,0
same,"Plant response rating (0 to 100), Morningglory",[10]; 125 g ai/ha,5
same,"Plant response rating, Morningglory",[10],5
same,"Plant response rating (0 to 100), Chickweed",[11]; 31 g ai/ha,20
same,"Plant response rating (0 to 100), Chickweed",[11]; 62 g ai/ha,50
same,"Plant response rating (0 to 100), Chickweed",[11]; 125 g ai/ha,60
same,"Plant response rating, Chickweed",[11],100
same,"Plant response rating (0 to 100), Kochia",[12]; 62 g ai/ha,35
same,"Plant response rating, Kochia",[12],50
same,"Plant response rating (0 to 100), Oat, Wild",[13]; 62 g ai/ha,0
same,"Plant response rating (0 to 100), Oat, Wild",[13]; 125 g ai/ha,0
same,"Plant response rating, Oat, Wild",[13],0
